The record followed here is patent US11992012B2, “Diaminotriazine compounds” (BASF SE, priority 2018, dated 2024).

Holding throughout (test): greenhouse pre-emergence herbicidal test
Common to all, as to assay type: in vivo
Holding throughout (settings): 250 g/ha, scale 0 to 100

For one assay, the system named is Amaranthus retroflexus. From the text:
(§1) The culture containers used were plastic flowerpots containing loamy sand with approximately 3.0% of humus as the substrate. The seeds of the test plants were sown separately for each species.
(§2) For the pre-emergence treatment, the active ingredients, which had been suspended or emulsified in water, were applied directly after sowing by means of finely distributing nozzles. The containers were irrigated gently to promote germination and growth and subsequently covered with transparent plastic hoods until the plants had rooted. This cover caused uniform germination of the test plants, unless this had been impaired by the active ingredients.
(§3) Depending on the species, the plants were kept at 10-25° C. or 20-35° C., respectively.
(§4) The test period extended over 2 to 4 weeks. During this time, the plants were tended, and their response to the individual treatments was evaluated.
(§5) Evaluation was carried out using a scale from 0 to 100. 100 means no emergence of the plants, or complete destruction of at least the aerial moieties, and 0 means no damage, or normal course of growth. A moderate herbicidal activity is given at values of at least 60, a good herbicidal activity is given at values of at least 70, and a very good herbicidal activity is given at values of at least 85.

A further assay has as its system Echinocloa crus-galli.
Source text: as §1, §2, §3, §4, §5

For the next assay, the system named is Setaria faberi. From the text:
The culture containers used were plastic flowerpots containing loamy sand with approximately 3.0% of humus as the substrate. The seeds of the test plants were sown separately for each species. For the pre-emergence treatment, the active ingredients, which had been suspended or emulsified in water, were applied directly after sowing by means of finely distributing nozzles. The containers were irrigated gently to promote germination and growth and subsequently covered with transparent plastic hoods until the plants had rooted. This cover caused uniform germination of the test plants, unless this had been impaired by the active ingredients. […] The test period extended over 2 to 4 weeks. During this time, the plants were tended, and their response to the individual treatments was evaluated. Evaluation was carried out using a scale from 0 to 100. 100 means no emergence of the plants, or complete destruction of at least the aerial moieties, and 0 means no damage, or normal course of growth.

As to `CC(C)(F)c1nc(N)nc(Nc2c(OC(F)(F)c3ccccc3)cc(F)c(F)c2F)n1` [Example 116], the herbicidal activity in the assay with Amaranthus retroflexus, with Echinocloa crus-galli and in the assay on Setaria faberi was 100% in each case.
With `CC(C)(F)c1nc(N)nc(Nc2c(OCc3c(F)cccc3Cl)ccc(F)c2F)n1` [Example 176], the herbicidal activity was 80% with Amaranthus retroflexus, 100% with Echinocloa crus-galli and 100% with Setaria faberi.
On to `COc1ccc(COc2c(F)cc(F)c(F)c2Nc2nc(N)nc(C(C)F)n2)cc1` (stereo not shown) [Example 212], for which the herbicidal activity in the assay with Amaranthus retroflexus, in the assay on Echinocloa crus-galli and in the assay on Setaria faberi was 100% in each case.
As to `CC(C)(F)c1nc(N)nc(Nc2c(F)ccc(Cl)c2OCc2ccccc2)n1` [Example 148], the herbicidal activity with Amaranthus retroflexus, in the assay on Echinocloa crus-galli and in the assay with Setaria faberi was 100% throughout.
As to `CC(C)Oc1cccc(COc2cccc(F)c2Nc2nc(N)nc(C(C)(C)F)n2)c1` [Example 132], the values for the herbicidal activity with Amaranthus retroflexus, in the assay on Echinocloa crus-galli and in the assay with Setaria faberi were 90%, 100% and 90%, respectively.
Consider `CC(C)(F)c1nc(N)nc(Nc2c(F)ccc(F)c2OCc2ccccc2)n1` [Example 72], for which the herbicidal activity with Amaranthus retroflexus, in the assay with Echinocloa crus-galli and in the assay on Setaria faberi was 100% throughout.
For the compound `CC(C)(F)c1nc(N)nc(Nc2c(F)ccc(C#N)c2OCc2ccccc2)n1` [Example 259], the herbicidal activity in the assay with Amaranthus retroflexus and in the assay with Setaria faberi was 100% in each case.
In the case of `CCCC(F)c1nc(N)nc(Nc2c(F)ccc(F)c2OCc2ccccc2)n1` (stereo not shown) [Example 170], the herbicidal activity in the assay with Amaranthus retroflexus is on record as 90%; with Echinocloa crus-galli, 100%; with Setaria faberi, 90%.
Consider `CCCC(F)c1nc(N)nc(Nc2c(OCc3ccccc3)cc(F)c(F)c2F)n1` (stereo not shown) [Example 169], for which the figures for the herbicidal activity in the assay with Amaranthus retroflexus and in the assay with Setaria faberi were 80% and 85%, respectively.
Take `CC(C)(F)c1nc(N)nc(Nc2c(F)cccc2OCc2cccc(OC(F)F)c2)n1` [Example 58]: the herbicidal activity in the assay with Amaranthus retroflexus is listed as 100%; in the assay on Echinocloa crus-galli it was 90%; in the assay on Setaria faberi, 100%.
Regarding `CC(C)(F)c1nc(N)nc(Nc2c(F)cccc2OCc2ccc(F)cc2)n1` [Example 6], the herbicidal activity in the assay with Amaranthus retroflexus, with Echinocloa crus-galli and with Setaria faberi was 100% in each case.
As to `COC(C)(C)c1nc(N)nc(Nc2c(F)cccc2OC(F)(F)c2ccccc2)n1` [Example 117], the herbicidal activity in the assay with Amaranthus retroflexus, in the assay on Echinocloa crus-galli and with Setaria faberi was 100% in each case.
Turning to `CC(C)=C(F)c1nc(N)nc(Nc2c(F)cccc2OCc2ccccc2)n1` [Example 152], the herbicidal activity is recorded as 100% with Amaranthus retroflexus and 90% in the assay with Setaria faberi.
In the case of `COC(C)c1nc(N)nc(Nc2c(F)c(F)cc(F)c2OCc2ccccc2C)n1` (stereo not shown) [Example 237], the herbicidal activity was 95% in the assay on Amaranthus retroflexus, 100% in the assay with Echinocloa crus-galli and 95% with Setaria faberi.
Regarding `CC(C)(F)c1nc(N)nc(Nc2c(F)cccc2OCc2cccs2)n1` [Example 154], the herbicidal activity with Amaranthus retroflexus, in the assay with Echinocloa crus-galli and in the assay with Setaria faberi was 100% in each case.
For the compound `COC(C)(C)c1nc(N)nc(Nc2c(F)ccc(F)c2OCc2ccccc2)n1` [Example 135], the herbicidal activity in the assay on Amaranthus retroflexus, in the assay with Echinocloa crus-galli and with Setaria faberi was 100% each time.
Take `Nc1nc(Nc2c(F)c(F)cc(F)c2OCc2ccccc2)nc(C2(F)CCCCC2)n1` [Example 256]: the herbicidal activity in the assay on Amaranthus retroflexus, in the assay with Echinocloa crus-galli and in the assay with Setaria faberi was 100% throughout.
With `CC(C)(F)c1nc(N)nc(Nc2c(F)cccc2OCc2nccs2)n1` [Example 36], the herbicidal activity in the assay with Amaranthus retroflexus is 100%; in the assay on Echinocloa crus-galli it was 75%.
As for `CC(F)c1nc(N)nc(Nc2c(F)c(F)cc(F)c2OCc2ccccc2)n1` (stereo not shown) [Example 209], the herbicidal activity with Amaranthus retroflexus, in the assay on Echinocloa crus-galli and in the assay with Setaria faberi was 100% throughout.
`CC(F)c1nc(N)nc(Nc2c(F)cccc2OCc2ccccc2)n1` (stereo not shown) [Example 161]: the herbicidal activity with Echinocloa crus-galli and in the assay with Setaria faberi was 100% each time.
As for `CC(C)(F)c1nc(N)nc(Nc2c(F)cccc2OCc2csc(Cl)c2)n1` [Example 110], the results for the herbicidal activity in the assay on Echinocloa crus-galli and in the assay on Setaria faberi were 90% and 80%, respectively.
As to `COC(C)(C)c1nc(N)nc(Nc2c(F)cccc2OCc2cccc(F)c2)n1` [Example 114], the herbicidal activity in the assay with Echinocloa crus-galli and with Setaria faberi was 90% in each case.
As to `CC(C)(F)c1nc(N)nc(Nc2c(F)ccc(F)c2OC(F)(F)c2ccccc2)n1` [Example 142], the herbicidal activity in the assay on Amaranthus retroflexus, with Echinocloa crus-galli and with Setaria faberi was 100% in each case.
As for `CC(C)c1nc(N)nc(Nc2c(F)cccc2OCc2ccccc2)n1` [Example 194], the results for the herbicidal activity in the assay with Echinocloa crus-galli and in the assay with Setaria faberi were 100% and 70%, respectively.
Turning to `CC(F)c1nc(N)nc(Nc2c(F)cccc2OC(F)(F)c2ccccc2)n1` (stereo not shown) [Example 171], the herbicidal activity with Amaranthus retroflexus was determined as 100%; in the assay with Echinocloa crus-galli, 85%; in the assay on Setaria faberi it was 100%.
Turning to `CC(Oc1cccc(F)c1Nc1nc(N)nc(C(C)(C)F)n1)c1ccccc1` (stereo not shown) [Example 23], the results for the herbicidal activity in the assay with Echinocloa crus-galli and with Setaria faberi were 100% and 75%, respectively.
The matching figures for `CC1(c2nc(N)nc(Nc3c(F)cccc3OCc3ccccc3)n2)CCC1` [Example 52]: 90% and 85%.
As for `COc1cccc(COc2c(F)cc(F)c(F)c2Nc2nc(N)nc(C(C)F)n2)c1` (stereo not shown) [Example 211], the herbicidal activity in the assay on Amaranthus retroflexus, in the assay on Echinocloa crus-galli and in the assay on Setaria faberi was 100% throughout.
As to `COc1c(F)cc(COc2cccc(F)c2Nc2nc(N)nc(C(C)(C)F)n2)cc1F` [Example 73], the herbicidal activity is given as 70% in the assay with Amaranthus retroflexus and 75% in the assay with Echinocloa crus-galli.
In the case of `CC(C)(F)c1nc(N)nc(Nc2c(F)c(Br)cc(Br)c2OCc2ccccc2)n1` [Example 235], the herbicidal activity in the assay on Amaranthus retroflexus amounted to 85%; in the assay on Echinocloa crus-galli, 90%; in the assay with Setaria faberi, 100%.
The like results for `COC(C)c1nc(N)nc(Nc2c(F)c(F)cc(F)c2OCc2cccc(F)c2)n1` (stereo not shown) [Example 241] were, in that order, 100%, 85% and 85%.
The like results for `COC(C)c1nc(N)nc(Nc2c(F)c(F)cc(F)c2OCc2ccccc2F)n1` (stereo not shown) [Example 240] were, in that order, 100%, 90% and 95%.
As for `COc1ccc(COc2c(F)ccc(F)c2Nc2nc(N)nc(C(C)(C)F)n2)cc1` [Example 192], the herbicidal activity in the assay with Echinocloa crus-galli and in the assay with Setaria faberi was 100% each time.
As for `CCc1ccc(COc2c(F)ccc(F)c2Nc2nc(N)nc(C(C)(C)F)n2)cc1` [Example 140], the herbicidal activity amounted to 98% in the assay on Echinocloa crus-galli and 100% with Setaria faberi.
On to `COC(C)c1nc(N)nc(Nc2c(F)c(F)cc(F)c2OCc2cccc(C)c2)n1` (stereo not shown) [Example 238], for which the herbicidal activity stood at 80% in the assay on Amaranthus retroflexus, 98% in the assay with Echinocloa crus-galli and 100% with Setaria faberi.
Take `Cc1cccc(COc2c(F)cc(F)c(F)c2Nc2nc(N)nc(C(C)F)n2)c1` (stereo not shown) [Example 230]: the herbicidal activity with Amaranthus retroflexus, with Echinocloa crus-galli and in the assay on Setaria faberi was 95% each time.
As for `COC(C)(C)c1nc(N)nc(Nc2c(F)c(F)cc(F)c2OCc2ccccc2)n1` [Example 213], the herbicidal activity with Amaranthus retroflexus, with Echinocloa crus-galli and in the assay with Setaria faberi was 100% throughout.
With `COC(C)c1nc(N)nc(Nc2c(F)ccc(F)c2OCc2ccccc2)n1` (stereo not shown) [Example 191], the herbicidal activity with Amaranthus retroflexus is reported as 95%; in the assay on Echinocloa crus-galli, 100%; in the assay on Setaria faberi it was 100%.
On to `CC(C)(F)c1nc(N)nc(Nc2c(OCc3cccc(F)c3)cc(F)c(F)c2F)n1` [Example 97], for which the herbicidal activity with Amaranthus retroflexus, in the assay on Echinocloa crus-galli and in the assay with Setaria faberi was 100% in each case.
Take `CC(C)(F)c1nc(N)nc(Nc2c(F)cccc2OCc2cc(F)cc(F)c2F)n1` [Example 74]: the herbicidal activity with Amaranthus retroflexus is reported as 80%; in the assay with Echinocloa crus-galli, 85%.
